According to the supplement of paper PMC13380429:

Assays:
Conditions in all cases: 72 h
Calu-3 [1] = assay: drug sensitivity score (DSS) for viability; higher = more toxic; extreme values may be limits of the assay
Caco-2 [2] = assay: as above
HepG2 [3] = assay: as above
U2OS [4] = assay: as above
Vero E6 [5] = assay: as above
Calu-3 [6] = assay: cell viability relative to DMSO; higher = less toxic
Caco-2 [7] = assay: as above
HepG2 [8] = assay: as above
U2OS [9] = assay: as above
Vero E6 [10] = assay: as above
Calu-3 [11] = assay: relative viability EC50 (midpoint between 100% and the lowest measured viability); higher = less toxic
Caco-2 [12] = assay: as above
HepG2 [13] = assay: as above
U2OS [14] = assay: as above
Vero E6 [15] = assay: as above

| Structure (SMILES) | drug sensitivity score (Calu-3 [1]) | drug sensitivity score (Caco-2 [2]) | drug sensitivity score (HepG2 [3]) | drug sensitivity score (U2OS [4]) | drug sensitivity score (Vero E6 [5]) | cell viability (Calu-3 [6]; 1 nM) | cell viability (Calu-3 [6]; 10 nM) | cell viability (Calu-3 [6]; 100 nM) | cell viability (Calu-3 [6]; 1000 nM) | cell viability (Calu-3 [6]; 10000 nM) | cell viability (Caco-2 [7]; 1 nM) | cell viability (Caco-2 [7]; 10 nM) | cell viability (Caco-2 [7]; 100 nM) | cell viability (Caco-2 [7]; 1000 nM) | cell viability (Caco-2 [7]; 10000 nM) | cell viability (HepG2 [8]; 1 nM) | cell viability (HepG2 [8]; 10 nM) | cell viability (HepG2 [8]; 100 nM) | cell viability (HepG2 [8]; 1000 nM) | cell viability (HepG2 [8]; 10000 nM) | cell viability (U2OS [9]; 1 nM) | cell viability (U2OS [9]; 10 nM) | cell viability (U2OS [9]; 100 nM) | cell viability (U2OS [9]; 1000 nM) | cell viability (U2OS [9]; 10000 nM) | cell viability (Vero E6 [10]; 1 nM) | cell viability (Vero E6 [10]; 10 nM) | cell viability (Vero E6 [10]; 100 nM) | cell viability (Vero E6 [10]; 1000 nM) | cell viability (Vero E6 [10]; 10000 nM) | relative viability EC50 (Calu-3 [11]) | relative viability EC50 (Caco-2 [12]) | relative viability EC50 (HepG2 [13]) | relative viability EC50 (U2OS [14]) | relative viability EC50 (Vero E6 [15]) |
| --- | --- | --- | --- | --- | --- | --- | --- | --- | --- | --- | --- | --- | --- | --- | --- | --- | --- | --- | --- | --- | --- | --- | --- | --- | --- | --- | --- | --- | --- | --- | --- | --- | --- | --- | --- |
| Oc1cc2c(c(Cl)c1O)CCNCC2c1ccccc1 (stereo not given) | 0 | 0 | 0.1 | 0 | 0 | 95.1% | 106% | 97.7% | 106% | 91.1% | 99.2% | 94.9% | 85.4% | 90.9% | 95.5% | 93.2% | 100% | 100% | 103% | 86.8% | 100% | 97% | 102% | 97.8% | 104% | 104% | 106% | 103% | 104% | 98.6% | > 10 µM | > 10 µM | > 10 µM | > 10 µM | > 10 µM |
| Oc1ccc2[nH]cc(C3=CCNCC3)c2n1 | 0 | 0 | 0 | 0 | 0 | 100% | 92.6% | 105% | 104% | 102% | 79.9% | 95.6% | 97% | 98.1% | 100% | 107% | 106% | 97.6% | 89.1% | 100% | 94.8% | 100% | 97.1% | 106% | 105% | 105% | 91.2% | 99.4% | 97% | 102% | > 10 µM | > 10 µM | > 10 µM | > 10 µM | > 10 µM |
| O[C@@H]1[C@H](O)[C@@H](CCl)O[C@H]1n1cnc2c(NC3CC4CCC3C4)ncnc21 (mixture of isomers) [5'-chloro-5'-deoxy-ENBA-(+/-)] | 0 | 0.4 | 0.2 | 0 | 0 | 99.1% | 98% | 93.3% | 94.8% | 90.2% | 98.8% | 99.6% | 99.2% | 97.2% | 86.1% | 96% | 99.6% | 96.2% | 99.5% | 85.4% | 104% | 100% | 99.3% | 104% | 97.6% | 96.7% | 97.2% | 94.3% | 91.9% | 91.5% | > 10 µM | > 10 µM | > 10 µM | > 10 µM | > 10 µM |
| N[C@@H](Cc1ccc(Cl)cc1)C(=O)O (racemic) [fenclonine-(+/-)] | 0 | 0 | 0 | 0 | 0 | 98.1% | 101% | 97.7% | 96.4% | 97.1% | 94% | 102% | 97.9% | 97.5% | 93.2% | 103% | 107% | 101% | 93.7% | 100% | 93.6% | 101% | 96.4% | 102% | 97.2% | 110% | 106% | 105% | 98.6% | 102% | > 10 µM | > 10 µM | > 10 µM | > 10 µM | > 10 µM |
| O=C([O-])CN1CCN(CC(=O)[O-])CCN([C@H](CO)[C@H](O)CO)CCN(CC(=O)[O-])CC1.[Gd+3] (racemic) [gadobutrol] | 0 | 0 | 0 | 0 | 0 | 96.2% | 104% | 109% | 109% | 98.4% | 107% | 96.2% | 95.5% | 98.8% | 104% | 97% | 99.2% | 101% | 91.8% | 100% | 99.6% | 113% | 100% | 104% | 106% | 100% | 105% | 96.8% | 99.4% | 107% | > 10 µM | > 10 µM | > 10 µM | > 10 µM | > 10 µM |
| N[C@@H](C(=O)O)c1nn[nH]n1 (racemic) [tetrazol-5-yl-glycine-(RS)] | 0.1 | 0 | 0 | 0 | 0 | 112% | 109% | 105% | 95.2% | 89.3% | 97.2% | 95.6% | 104% | 98% | 90.6% | 91% | 107% | 101% | 96.6% | 108% | 104% | 98.5% | 103% | 93.7% | 104% | 95% | 104% | 90.2% | 98.3% | 107% | > 10 µM | > 10 µM | > 10 µM | > 10 µM | > 10 µM |
| O=C1Cc2c([nH]c3ccc(Br)cc23)-c2ncccc2N1 [1-azakenpaullone] | 0 | 0 | 0 | 0 | 0 | 102% | 94.6% | 101% | 104% | 118% | 98.1% | 99.7% | 95.4% | 109% | 104% | 89.6% | 96.3% | 92.8% | 104% | 105% | 99.8% | 95.9% | 99.3% | 98.4% | 96.1% | 91.7% | 103% | 96.5% | 101% | 105% | > 10 µM | > 10 µM | > 10 µM | > 10 µM | > 10 µM |
| COc1ccc2[nH]c(-c3ccccc3)c(CCNC(C)=O)c2c1 [2-phenylmelatonin] | 0 | 0.6 | 0 | 0 | 0 | 96.5% | 94.9% | 99.3% | 106% | 102% | 98.8% | 105% | 93% | 98% | 82.6% | 104% | 99.5% | 101% | 101% | 105% | 102% | 101% | 97.6% | 105% | 98.1% | 101% | 99.9% | 106% | 98.8% | 93.7% | > 10 µM | > 10 µM | > 10 µM | > 10 µM | > 10 µM |
| Cc1ccc(/C=C2/C(=O)C3(C)CCC2C3(C)C)cc1 (stereo not given) [3-(4-methylbenzylidene)camphor] | 1.2 | 0 | 0 | 0 | 0 | 102% | 97.2% | 88.1% | 92.1% | 93.8% | 92.9% | 100% | 90% | 95.8% | 95.9% | 94.1% | 96% | 94.3% | 88.9% | 103% | 101% | 104% | 96.4% | 99.1% | 100% | 101% | 101% | 96.9% | 99.9% | 96.3% | > 10 µM | > 10 µM | > 10 µM | > 10 µM | > 10 µM |
| O=C(c1cc(S(=O)(=O)Nc2ccccc2F)c(F)cc1Cl)N1CCN2CCC[C@@H]2C1 [ABT-639] | 0 | 0 | 0 | 0 | 0 | 103% | 104% | 99.8% | 106% | 96.1% | 95.2% | 97.8% | 98.9% | 94.9% | 104% | 94.4% | 106% | 87.2% | 105% | 92.5% | 99.1% | 97.4% | 99% | 95.1% | 99.5% | 102% | 98.9% | 97.8% | 100% | 100% | > 10 µM | > 10 µM | > 10 µM | > 10 µM | > 10 µM |
| Cc1ccc(S(=O)(=O)NC2c3ccccc3Oc3ccccc32)cc1 [AH-7614] | 0 | 0 | 0 | 0 | 0 | 101% | 108% | 96.5% | 96.5% | 113% | 96.5% | 87.3% | 91.7% | 92.9% | 93.4% | 96.4% | 91.5% | 103% | 110% | 93% | 105% | 95.8% | 102% | 102% | 100% | 95.8% | 100% | 99.1% | 98% | 103% | > 10 µM | > 10 µM | > 10 µM | > 10 µM | > 10 µM |
| Nc1ccn([C@@H]2O[C@@](CO)(CCl)[C@@H](O)[C@H]2F)c(=O)n1 [ALS-8112] | 0 | 0 | 0.8 | 0 | 0 | 104% | 102% | 93.8% | 100% | 90.9% | 95.2% | 96.4% | 96.1% | 93.9% | 98.9% | 90.2% | 94.3% | 104% | 96.1% | 82.8% | 102% | 99.2% | 102% | 96.8% | 97.4% | 100% | 97.7% | 97% | 98.8% | 94.8% | > 10 µM | > 10 µM | > 10 µM | > 10 µM | > 10 µM |
| CN1CCN(CCc2ccc(Cl)c(Cl)c2)CC1 [BD-1063] | 0 | 0 | 0.4 | 0 | 0 | 91.3% | 96.2% | 102% | 96.9% | 101% | 98.6% | 100% | 95% | 91.3% | 92.2% | 108% | 102% | 103% | 92.4% | 87.7% | 94.2% | 100% | 93.9% | 100% | 95.3% | 105% | 101% | 105% | 95.1% | 93.9% | > 10 µM | > 10 µM | > 10 µM | > 10 µM | > 10 µM |
| CCC[C@@H]1CC(=O)N([C@@H](CC)C(N)=O)C1 [Brivaracetam] | 0 | 0 | 0 | 0 | 0 | 100% | 103% | 92.7% | 100% | 97.2% | 89.1% | 94.5% | 93.8% | 102% | 98.8% | 101% | 96.2% | 101% | 97.9% | 114% | 102% | 98% | 102% | 96.2% | 99.6% | 89.6% | 96.2% | 88.3% | 97.5% | 107% | > 10 µM | > 10 µM | > 10 µM | > 10 µM | > 10 µM |
| O=C(O)c1ccc(/C=C2\SC(=S)N(c3cccc(C(F)(F)F)c3)C2=O)cc1 [CFTRinh-172] | 0 | 0 | 0 | 0 | 0 | 102% | 99.9% | 97.8% | 106% | 116% | 104% | 100% | 86.7% | 99.4% | 99.9% | 111% | 104% | 96.2% | 94.7% | 106% | 95.2% | 101% | 94.2% | 104% | 99.4% | 96.3% | 96.3% | 96.4% | 93.9% | 107% | > 10 µM | > 10 µM | > 10 µM | > 10 µM | > 10 µM |
